{
  "source": "patent EP1978972B1",
  "about": "“USE OF ALKYLGLUCOSIDE ESTERS AS BETA-DEFENSIN INDUCERS” (Pierre Fabre Dermo-Cosmétique, priority 2006, dated 2007)",
  "key": {"[1]": {"system": "hBD-3", "test": "Immunohistochemistry of hBD-3 peptide in reconstructed gingival epithelium", "format": "cell-based, human", "details": "vs untreated sample, qualitative", "procedure": "(§1) Les échantillons inclus dans la résine Tissue Tek® sont coupés à froid (température de la chambre à -25°C et la température du porte-objet à - 28°C) à l'aide d'un cryostat (Leica CM 3050s, Nussloch). Les cryocoupes d'une épaisseur de 5 µm sont récupérées sur des lames porte-objet prétraitées, puis mises à sécher environ 2 h à température ambiante et stockées à -20°C pour une utilisation ultérieure. Avant de réaliser l'immuno-marquage, les coupes sont fixées à l'acétone à -20°C pendant 10 min, séchées et conservées à -20°C. Lors d'une première étape, les coupes sont hydratées puis incubées avec les anticorps primaires dirigés contre les peptides d'intérêt dilués dans du PBS. Les anticorps primaires utilisés sont les suivants : • Goat Anti-human BD-2 (500-P161G, Peprotech Inc) dilué au 1/50^e • Rabbit Anti-human defensin-3 (AB3478, Chemicon international) dilué au 1/1000^e • Rabbit Anti-human LL37 (G-075-06, Phoenix Pharmaceuticals Inc) dilué au 1/50^e\n(§2) Pour révéler le complexe Antigène-Anticorps, le kit DAKO LSAB® (DAKO Corporation) est utilisé selon les recommandations du fournisseur. La révélation est réalisée à l'aide d'un substrat de la péroxydase : la 3,3'diaminobenzidine (DAB) (DAKO Corporation). […]"}, "[2]": {"system": "Staphylococcus epidermidis", "test": "Development of endogenous commensal S. epidermidis on skin explant during 24 h after adhesion step", "format": "cell-based", "details": "systemic treatment, in words", "procedure": "Il est par ailleurs possible d'observer la colonisation de l'explant par le germe exogène (S. aureus) après l'étape d'adhésion pendant 24 h. […] L'effet inverse est observé avec le traitement par le TNF-α, cytokine pro-inflammatoire, qui après avoir entraîné une forte chute de l'adhésion de S. aureus (Cf.III.4.2) ne permet pas une limitation de la croissance du germe pathogène sur l'explant et ceci au dépend du germe commensal S. epidermidis.\nLa figure 12 annexée illustre la comparaison de la colonisation d'une souche contaminante, S. aureus, avec celle d'une souche commensale, S. epidermis."}, "[3]": {"system": "hBD-3", "test": "Immunohistochemistry of hBD-3 peptide in skin explants", "format": "cell-based, human", "details": "skin explant, qualitative", "procedure": "as §1, §2"}, "[4]": {"system": "S. aureus", "test": "Adhesion of S. aureus on skin explant (modified Franz cell), count of adherent bacteria", "format": "cell-based, Staphylococcus aureus", "text": "Pour révéler le complexe Antigène-Anticorps, le kit DAKO LSAB® (DAKO Corporation) est utilisé selon les recommandations du fournisseur. La révélation est réalisée à l'aide d'un substrat de la péroxydase : la 3,3'diaminobenzidine (DAB) (DAKO Corporation). La réaction enzymatique est révélée par une coloration brune. • ➢L'adhésion des micro-organismes est réalisée dans une cellule à double compartimentation, de type cellule de Franz modifiée. • ➢Une suspension de S.aureus (CIP 53.154) équivalente à 0,5.10^7 micro-organismes est introduite au sein du compartiment supérieur de la cellule. Le dispositif est incubé de 2 h à 37°C sous une atmosphère à 5 % de CO2. A la fin de cette période d'incubation, le surnageant est retiré afin d'éliminer les bactéries non adhérentes. Les échantillons de peau sont ensuite rincés deux fois avec 1 ml de mélange DMEM/HAMF12. Un dénombrement bactérien à l'issue de cette étape donne la proportion de bactéries ayant adhéré à l'explant (T+2 h). Un témoin est réalisé dans le but de déterminer l'adhésion non spécifique des bactéries. • ➢La stimulation de l'expression des β-défensines cutanées précède l'étape d'adhésion. Son objectif est d'étudier l'impact de l'induction des peptides antimicrobiens par des actifs potentiels de type « alkyle mono- ou di-ester d'α,β-butylglucoside » sur l'adhésion de souches bactériennes. Le traitement est effectué en topique ou en systémique. Le temps de stimulation des explants cutanés est de 24 h à 37°C en présence de 5 % de CO2.\nPour analyse, les explants sont retirés de leur cellule, des punchs de diamètres différents (3 mm, 4 mm et 6 mm) sont effectués pour un test MTT de survie, les marquages immuno-histologiques et les analyses des transcrits par RT-PCR. Le reste de peau est utilisé pour une estimation de la flore bactérienne adhérente.\nLe dénombrement de la flore bactérienne adhérente exogène par unité de surface de peau a été effectué selon deux méthodes : • par dénombrement bactérien sur milieu solide • par comptage de la radioactivité émise (la souche contaminante étant marquée au H^3) est effectuée. […]\nAprès une application topique de 5 h et plusieurs rinçages de la surface épidermique d'un explant cutané, l'effet du traitement par l'α,β-LBG brut sur l'adhésion de S.aureus sur ce même explant a été quantifié par le dénombrement des germes adhérents à l'issue d'une mise en contact de 2 h. […]\nAprès application topique et plusieurs rinçages de la surface épidermique des explants cutanés, l'effet du traitement par les isoformes de l'ester de laurate de butylglucoside pur à 90 %, séparées, α seul, β seul, ou en mélange α,β-LBG (56 % α/44 % β) sur l'adhésion de S. aureus sur l'épiderme a été comparé après quantification des germes adhérents par dénombrement."}, "[5]": {"system": "S. aureus", "test": "Direct microbicidal activity and direct effect on adhesion of S. aureus", "parameters": "species or system Staphylococcus aureus", "details": "at the concentrations used"}, "[6]": {"system": "hBD-2", "test": "Immunohistochemistry of hBD-2 peptide in skin explants", "format": "cell-based, human", "details": "skin explant, qualitative", "procedure": "as §1, §2"}},
  "data": [
    {"substance": "laurate de butylglucoside [αβ-LBG brut]", "values": [
      {"measurement": "production du peptide hBD-3 par les cellules de l'épithélium gingival reconstruit", "setting": "[1]", "result": "confirmer la production du peptide hBD-3"},
      {"measurement": "développement du germe commensal S. epidermidis", "setting": "[2]", "result": "favorise à l'inverse le développement d'un germe commensal endogène"},
      {"measurement": "production du peptide hBD-3 dans les couches supérieures de l'épiderme", "setting": "[3]; systemic, 24 h", "result": "stimulation de la production"},
      {"measurement": "production du peptide hBD-3 dans les couches supérieures de l'épiderme", "setting": "[3]; topical", "result": "stimulation de la production"},
      {"measurement": "diminution de l'adhésion des germes sur l'explant", "setting": "[4]; systemic 30 µg/ml, separate compartments, vs unstimulated control", "result": 11, "unit": "%"},
      {"measurement": "baisse de l'adhésion de S. aureus", "setting": "[4]; topical 30 µg/ml for 5 h, then 2 h contact, vs untreated control", "result": 20, "unit": "%"},
      {"measurement": "activité microbicide directe", "setting": "[5]", "result": "ni activité microbicide directe"},
      {"measurement": "direct effect on adhésion de S. aureus", "setting": "[5]", "result": "ni effet sur l'adhésion de S. aureus"},
      {"measurement": "production du peptide hBD-2 dans les couches supérieures de l'épiderme", "setting": "[6]; systemic, 24 h", "result": "stimulation de la production"},
      {"measurement": "production du peptide hBD-2 dans les couches supérieures de l'épiderme", "setting": "[6]; topical", "result": "stimulation de la production"}
    ]}
  ]
}
